The values that follow come from patent US9145391B2, “Bipyridylaminopyridines as Syk inhibitors” (Merck Sharp & Dohme Corp., priority 2011, dated 2015).

The term pIC50 denotes the negative decadic logarithm of the IC50, by convention in mol/L.

This assay has as its target recombinant human GST-Syk (Homo sapiens (Human), UniProt P43405). As to the kind of experiment: Homogeneous Time-Resolved Fluorescence (HTRF) assay for the recombinant human Syk enzyme. Type of assay: biochemical. As to conditions: recombinant human GST-Syk 5 pM, ATP 25 μM, read-out: rhSyk IC50. The procedure, abridged: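 HTRF read-out of phosphorylation of a biotinylated Syk-site peptide (250 nM final) by a GST-tagged human Syk fusion. Reaction initiated with ATP at 25 μM final plus 5 mM magnesium final. Compound potency taken from inhibition of human Syk activity.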
(In general: Time-resolved FRET reads energy transfer from a long-lived donor to a nearby acceptor.)

pIC50: −log10 of the molar value.

As for `Cc1cc(Nc2cc(C(F)(F)F)ccn2)nc(-c2ccc(NC3CCN(C(=O)c4ccccc4N4CCN(C)CC4)CC3)nc2)c1` [Example 4-20], the pIC50 is 8.40.
Regarding `Cc1cc(Nc2cc(C(F)(F)F)ccn2)nc(-c2ccc(NC3CCN(C(=O)c4cc5cccc(C)c5nc4C)CC3)nc2)c1` [Example 4-21], the negative-log IC50 (pIC50) was 7.05.
Regarding `Cc1cc(Nc2cc(C(F)(F)F)ccn2)nc(-c2ccc(NC3CCN(C(=O)c4ccc(C(N)=O)cc4)CC3)nc2)c1` [Example 4-23], the pIC50 is 8.52.
As for `Cc1cc(Nc2cc(C(F)(F)F)ccn2)nc(-c2ccc(NC3CCN(C(=O)c4ccc5ccccc5n4)CC3)nc2)c1` [Example 4-24], the pIC50 was 8.15.
Take `Cc1cc(Nc2cc(C(F)(F)F)ccn2)nc(-c2ccc(NC3CCN(C(=O)COc4ccccc4-c4ccccc4)CC3)nc2)c1` [Example 4-25]: the pIC50 was 6.68.
For `Cc1cc(Nc2cc(C(F)(F)F)ccn2)nc(-c2ccc(NC3CCN(C(=O)c4ccccc4Cn4cncn4)CC3)nc2)c1` [Example 4-26], the pIC50 was 8.15.
With `Cc1cc(Nc2cc(C(F)(F)F)ccn2)nc(-c2ccc(NC3CCN(C(=O)c4cccc(C(N)=O)c4)CC3)nc2)c1` [Example 4-27] the figure was 8.52; with `Cc1cc(Nc2cc(C(F)(F)F)ccn2)nc(-c2ccc(NC3CCN(C(=O)c4cn[nH]c4-c4ccccc4)CC3)nc2)c1` [Example 4-28], 7.57.
On to `Cc1cc(Nc2cc(C(F)(F)F)ccn2)nc(-c2ccc(NC3CCN(C(=O)c4cccc(Cn5cccn5)c4)CC3)nc2)c1` [Example 4-29], for which the pIC50 is 8.15.
Turning to `Cc1cc(Nc2cc(C(F)(F)F)ccn2)nc(-c2ccc(NC3CCN(C(=O)c4nn(-c5ccccc5)nc4C)CC3)nc2)c1` [Example 4-30], the pIC50 is 6.86.
With `Cc1cc(Nc2cc(C(F)(F)F)ccn2)nc(-c2ccc(NC3CCN(C(=O)c4ccnn4-c4ccccc4)CC3)nc2)c1` [Example 4-32], the pIC50 was 7.27.
With `Cc1cc(Nc2cc(C(F)(F)F)ccn2)nc(-c2ccc(NC3CCN(C(=O)c4cccc5[nH]ccc45)CC3)nc2)c1` [Example 4-33] the figure was 8.15.
With `Cc1cc(Nc2cc(C(F)(F)F)ccn2)nc(-c2ccc(NC3CCN(C(=O)Cc4ccc5[nH]c(C)c(C)c5c4)CC3)nc2)c1` [Example 4-34], the pIC50 is 8.10.
Consider `Cc1cc(Nc2cc(C(F)(F)F)ccn2)nc(-c2ccc(NC3CCN(C(=O)c4nccc5ncccc45)CC3)nc2)c1` [Example 4-35], for which the pIC50 is 8.52.
Regarding `Cc1cc(Nc2cc(C(F)(F)F)ccn2)nc(-c2ccc(NC3CCN(C(=O)c4cccc(-n5cccn5)c4)CC3)nc2)c1` [Example 4-36], the pIC50 was 8.00.
Turning to `Cc1cc(Nc2cc(C(F)(F)F)ccn2)nc(-c2ccc(NC3CCN(C(=O)c4cnn5cccnc45)CC3)nc2)c1` [Example 4-37], the negative logarithm of the IC50 (pIC50) is 9.00.
On to `Cc1cc(Nc2cc(C(F)(F)F)ccn2)nc(-c2ccc(NC3CCN(C(=O)c4ccccc4N(C)C)CC3)nc2)c1` [Example 4-38], for which the pIC50 is 7.40.
As to `Cc1cc(Nc2cc(C(F)(F)F)ccn2)nc(-c2ccc(NC3CCN(C(=O)c4cccc5cc(O)ccc45)CC3)nc2)c1` [Example 4-39], the pIC50 is 8.15.
Take `Cc1cc(Nc2cc(C(F)(F)F)ccn2)nc(-c2ccc(NC3CCN(C(=O)c4cccc(C(F)(F)F)c4)CC3)nc2)c1` [Example 4-40]: the negative logarithm of the IC50 (pIC50) is 6.99.
With `Cc1cc(Nc2cc(C(F)(F)F)ccn2)nc(-c2ccc(NC3CCN(C(=O)Cc4ccc5ccccc5c4)CC3)nc2)c1` [Example 4-41] the figure was 7.24; with `Cc1cc(Nc2cc(C(F)(F)F)ccn2)nc(-c2ccc(NC3CCN(C(=O)c4cccc(N(C)C)c4)CC3)nc2)c1` [Example 4-42], 8.40.
For `Cc1cc(Nc2cc(C(F)(F)F)ccn2)nc(-c2ccc(NC3CCN(C(=O)c4cccc5c4C(=O)c4ccccc4-5)CC3)nc2)c1` [Example 4-43], the pIC50 was 7.54.
With `Cc1cc(Nc2cc(C(F)(F)F)ccn2)nc(-c2ccc(NC3CCN(C(=O)c4ccc5cccnc5n4)CC3)nc2)c1` [Example 4-44] the figure was more than 9.30; with `Cc1cc(Nc2cc(C(F)(F)F)ccn2)nc(-c2ccc(NC3CCN(C(=O)c4cccc5cccnc45)CC3)nc2)c1` [Example 4-45], 8.15.
For `Cc1cc(Nc2cc(C(F)(F)F)ccn2)nc(-c2ccc(NC3CCN(C(=O)c4cccc(S(C)(=O)=O)c4)CC3)nc2)c1` [Example 4-46], the pIC50 is 8.40.
For the molecule `Cc1cc(Nc2cc(C(F)(F)F)ccn2)nc(-c2ccc(NC3CCN(C(=O)c4cc(-n5cccn5)ccc4Cl)CC3)nc2)c1` [Example 4-48], the pIC50 was 7.52.
For `Cc1cc(Nc2cc(C(F)(F)F)ccn2)nc(-c2ccc(NC3CCN(C(=O)c4ccc5ccccc5c4)CC3)nc2)c1` [Example 4-49], the pIC50 is 7.72.
Regarding `Cc1cc(Nc2cc(C(F)(F)F)ccn2)nc(-c2ccc(NC3CCN(C(=O)c4cccc(Oc5ccccc5)c4)CC3)nc2)c1` [Example 4-50], the pIC50 is 7.01.
With `Cc1cc(Nc2cc(C(F)(F)F)ccn2)nc(-c2ccc(NC3CCN(C(=O)c4cnc5ccc(C)cc5c4)CC3)nc2)c1` [Example 4-51], the pIC50 is 8.00.
As for `Cc1cc(Nc2cc(C(F)(F)F)ccn2)nc(-c2ccc(NC3CCN(C(=O)Cc4cccc5ccccc45)CC3)nc2)c1` [Example 4-52], the pIC50 is 7.28.
On to `COc1ccc2cc(CC(=O)N3CCC(Nc4ccc(-c5cc(C)cc(Nc6cc(C(F)(F)F)ccn6)n5)cn4)CC3)ccc2c1` [Example 4-53], for which the pIC50 is 7.11.
For `Cc1cc(Nc2cc(C(F)(F)F)ccn2)nc(-c2ccc(NC3CCN(C(=O)c4cccc5c4Cc4ccccc4-5)CC3)nc2)c1` [Example 4-54], the pIC50 is 6.83.
As to `COc1ccc2cc(C(C)C(=O)N3CCC(Nc4ccc(-c5cc(C)cc(Nc6cc(C(F)(F)F)ccn6)n5)cn4)CC3)ccc2c1` (stereo not shown) [Example 4-55], the pIC50 was 6.65.
Under `CCc1ccc(OCC(=O)N2CCC(Nc3ccc(-c4cc(C)cc(Nc5cc(C(F)(F)F)ccn5)n4)cn3)CC2)cc1` [Example 4-56] stands 7.41; under `Cc1cc(Nc2cc(C(F)(F)F)ccn2)nc(-c2ccc(NC3CCN(C(=O)Cc4ccc(Oc5ccccc5)cc4)CC3)nc2)c1` [Example 4-57], 6.76; under `CC(=O)Nc1cccc(C(=O)N2CCC(Nc3ccc(-c4cc(C)cc(Nc5cc(C(F)(F)F)ccn5)n4)cn3)CC2)c1` [Example 4-58], 8.40.
On to `Cc1cc(Nc2cc(C(F)(F)F)ccn2)nc(-c2ccc(NC3CCN(C(=O)c4cccc5ccccc45)CC3)nc2)c1` [Example 4-59], for which the pIC50 was 7.21.
With `Cc1cc(Nc2cc(C(F)(F)F)ccn2)nc(-c2ccc(NC3CCN(C(=O)c4cn(Cc5ccccc5)c5ccccc45)CC3)nc2)c1` [Example 4-60], the pIC50 was 6.37.
As to `Cc1cc(Nc2cc(C(F)(F)F)ccn2)nc(-c2ccc(NC3CCN(C(=O)c4cc5ccccc5cn4)CC3)nc2)c1` [Example 4-61], the pIC50 is 8.40.
Turning to `Cc1cc(Nc2cc(C(F)(F)F)ccn2)nc(-c2ccc(NC3CCN(C(=O)c4cccc(-c5cc[nH]n5)c4)CC3)nc2)c1` [Example 4-62], the negative-log IC50 (pIC50) was 7.82.
With `Cc1cc(Nc2cc(C(F)(F)F)ccn2)nc(-c2ccc(NC3CCN(C(=O)c4cnc5ccccn45)CC3)nc2)c1` [Example 4-63] the figure was 8.15; with `COc1c(C(=O)N2CCC(Nc3ccc(-c4cc(C)cc(Nc5cc(C(F)(F)F)ccn5)n4)cn3)CC2)ccc2ccccc12` [Example 4-64], 7.08.
Turning to `Cc1cc(Nc2cc(C(F)(F)F)ccn2)nc(-c2ccc(NC3CCN(C(=O)c4nccc5ccccc45)CC3)nc2)c1` [Example 4-65], the pIC50 was 7.70.
Regarding `Cc1cc(Nc2cc(C(F)(F)F)ccn2)nc(-c2ccc(NC3CCN(C(=O)c4ccnc5ccccc45)CC3)nc2)c1` [Example 4-66], the pIC50 was 7.62.
Consider `Cc1cc(Nc2cc(C(F)(F)F)ccn2)nc(-c2ccc(NC3CCN(C(=O)c4cccc5c4oc4ccccc45)CC3)nc2)c1` [Example 4-67], for which the pIC50 is 6.75.
Take `Cc1cc(Nc2cc(C(F)(F)F)ccn2)nc(-c2ccc(NC3CCN(C(=O)Cc4ccccn4)CC3)nc2)c1` [Example 4-68]: the pIC50 is 8.70.
For `Cc1cc(Nc2cc(C(F)(F)F)ccn2)nc(-c2ccc(NC3CCN(C(=O)Cc4ccc(-c5ccccc5)cc4)CC3)nc2)c1` [Example 4-69], the pIC50 is 6.86.
As to `Cc1cc(Nc2cc(C(F)(F)F)ccn2)nc(-c2ccc(NC3CCN(C(=O)Cc4ccccc4C#N)CC3)nc2)c1` [Example 4-70], the pIC50 is 8.22.
In the case of `Cc1cc(Nc2cc(C(F)(F)F)ccn2)nc(-c2ccc(NC3CCN(C(=O)c4ccccc4Cl)CC3)nc2)c1` [Example 4-71], the pIC50 is 7.68.
With `Cc1cc(Nc2cc(C(F)(F)F)ccn2)nc(-c2ccc(NC3CCN(C(=O)c4ccc(C(F)(F)F)cc4)CC3)nc2)c1` [Example 4-72], the pIC50 was 7.25.
On to `Cc1cc(Nc2cc(C(F)(F)F)ccn2)nc(-c2ccc(NC3CCN(C(=O)Cc4ccc(Cl)cc4)CC3)nc2)c1` [Example 4-73], for which the pIC50 is 7.68.
Under `Cc1cc(Nc2cc(C(F)(F)F)ccn2)nc(-c2ccc(NC3CCN(C(=O)Cc4cccc(Oc5ccccc5)c4)CC3)nc2)c1` [Example 4-74] stands 7.24.
For `Cc1cc(Nc2cc(C(F)(F)F)ccn2)nc(-c2ccc(NC3CCN(C(=O)Cc4ccccc4C(F)(F)F)CC3)nc2)c1` [Example 4-75], the pIC50 is 7.41.
In the case of `Cc1cc(Nc2cc(C(F)(F)F)ccn2)nc(-c2ccc(NC3CCN(C(=O)CCOc4ccccc4)CC3)nc2)c1` [Example 4-76], the pIC50 is 8.00.
With `Cc1cc(Nc2cc(C(F)(F)F)ccn2)nc(-c2ccc(NC3CCN(C(=O)Cc4cccnc4)CC3)nc2)c1` [Example 4-77] the figure was 9.00; with `Cc1cc(Nc2cc(C(F)(F)F)ccn2)nc(-c2ccc(NC3CCN(C(=O)c4ccc5nc(C)sc5c4)CC3)nc2)c1` [Example 4-78], 8.40; with `CC(=O)Nc1ccc(C(=O)N2CCC(Nc3ccc(-c4cc(C)cc(Nc5cc(C(F)(F)F)ccn5)n4)cn3)CC2)cc1` [Example 4-79], 8.40.
Under `Cc1cc(Nc2cc(C(F)(F)F)ccn2)nc(-c2ccc(NC3CCN(C(=O)COc4ccccc4)CC3)nc2)c1` [Example 4-80] stands 7.55.
